# Where “and” joins values, the source holds several entries; their conditions need not be identical. Identical values can stand only once.
# Columns and labels:
# [1] = tested on: differentiated 3T3-L1 adipocytes; test: Insulin-stimulated glucose uptake assay by (3H)2-deoxyglucose; type: cell-based, mouse; design: insulin-stimulated glucose uptake, Fig 1J replicates / Figure 5E raw value, insulin-stimulated glucose uptake (replicates): unit not given here
# Experimental: (§1) The cell lines, which were tested for mycoplasma contamination and authenticated, were purchased from the Bioresource Collection and Research Center, Taiwan. All cells were cultured at 37 °C, 5% CO2 in a humidified incubator. HEK293T cells were maintained in DMEM (cat. no. SH30003.02, HyClone) supplemented with 10% fetal bovine serum (FBS) (cat. no. 04-001-1A, Biological Industries) and 1% antibiotic/antimycotic solution (cat. no. SV30079.01, HyClone). 3T3-L1 preadipocytes were maintained at ~70% confluence in DMEM with 10% calf serum (cat. no. 16170078, Gibco) and 1% antibiotic/antimycotic solution. For adipocyte differentiation, confluent 3T3-L1 cells (defined as day 0) were exposed to an induction medium containing 10% FBS, 1 μM dexamethasone (cat. no. D4902, Sigma-Aldrich), and 1 μg/ml insulin (Humulin R, Eli Lilly) in DMEM with or without 0.5 mM isobutyl-methylxanthine (cat. no. sc-201188A, Santa Cruz Biotechnology) as indicated. After two days, the medium was replaced with DMEM containing 10% FBS and 1 μg/ml insulin and was replenished every two days until assay.
# Differentiated 3T3-L1 cells were starved with serum-free DMEM containing 0.2% BSA (cat. no. A9647, Sigma-Aldrich). Cells were rinsed twice with KRH buffer (137 mM NaCl, 4.7 mM KCl, 1.85 mM CaCl2, 1.3 mM MgSO4, 50 mM HEPES and 0.1% BSA, pH 7.4), and treated with or without […] insulin in the presence of 20 μM cytochalasin B (cat. no. 11328, Cayman Chemical), a GLUT inhibitor for measuring non-specific glucose uptake, for 30 min. Cells were then incubated with 0.5 μCi [^3H]-2-deoxy-D-Glucose (cat. no. NET328A001MC, PerkinElmer) and 0.1 μM 2-deoxy-D-Glucose (2DG) (cat. no. 14325, Cayman Chemical) for 5 min. Uptake of 2DG was terminated by rapidly removing medium and washing with ice-cold PBS three times. Cells were lysed with 0.1% SDS, and the radioactivity was measured using a liquid scintillation counter. Insulin-mediated glucose uptake was calculated by subtracting insulin-treated glucose uptake with basal glucose uptake.
# PTGR2 [2] = tested on: PTGR2; design: method as in Toroitich et al, 2021; conditions: ref Toroitich et al, 2021; cited from earlier work
# PTGR2 [3] = tested on: PTGR2; design: method as in Toroitich et al, 2021; conditions: ref Toroitich et al, 2021; cited from earlier work; remark: listed apart in the source
# [4] = tested on: PPARγ-null 3T3-L1 clones rescued with mutant mPPARγ (C313A); test: Insulin-stimulated glucose uptake in PPARγ-null 3T3-L1 clones rescued with mutant mPPARγ (C313A); type: cell-based, mouse; conditions: Pio 1; clone #1296 rescued with mPPARγ C313A
# Experimental: (§2) Gene editing was performed in 3T3-L1 preadipocytes using the clustered regularly interspaced short palindromic repeats (CRISPR)/Cas9 system. Two single-guide RNAs (sgRNA) (Appendix Table S5) targeting exon 6 of mouse Pparγ were designed using a web-based design tool (http://crispr.mit.edu/). These oligonucleotides were cloned into the pSurrogate reporter and pAll-Cas9.Ppuro vector obtained from Academia Sinica, Taiwan. The pSurrogate reporter contains an EGFP and an out-of-frame mCherry downstream of the sgRNA; the pAll-Cas9.Ppuro vector expresses Cas9 nuclease and sgRNA. Once a double-strand breaking at the target site in pSurrogate reporter plasmid was created by Cas9, insertions and deletions (indels) could be introduced at the cleaved site. The indels cause frameshifts and result in the expression of the mCherry gene. 3T3-L1 preadipocytes were co-transfected with pSurrogate reporter and pAll-Cas9.Ppuro vectors at 80-90% confluency using PolyJet™ transfection reagent (cat. no. SL100688, SignaGen Laboratories, USA). Two days after transfection, EGFP/mCherry double-positive cells were enriched by fluorescent-activated cell sorting. Single cells were isolated and expanded. The genomic DNA was amplified by PCR and sequenced to confirm the knockout cell lines. The primer sequences are shown in Appendix Table S5.
# (§3) The mPPARγ C313A DNA sequence was amplified from pCMV6-Pparg C313A and subcloned into the pLVX-IRES-Neo vector with XhoI/NotI restriction sites. The lentiviral expression plasmids, pMD.G, and pCMVΔR8.91 (RNAi Core, Academia Sinica, Taiwan), were co-transfected into HEK293T cells. […] HSP70 was probed with an anti-HSP70 antibody (cat. no. ab45133, Abcam) as a loading control.
# (§4) Differentiated 3T3-L1 cells were starved with serum-free DMEM containing 0.2% BSA (cat. no. A9647, Sigma-Aldrich). […] Uptake of 2DG was terminated by rapidly removing medium and washing with ice-cold PBS three times. Cells were lysed with 0.1% SDS, and the radioactivity was measured using a liquid scintillation counter. Insulin-mediated glucose uptake was calculated by subtracting insulin-treated glucose uptake with basal glucose uptake.
# mPPARγ-downstream genes = test: RT-qPCR of Glut4 and other mPPARγ-downstream genes in differentiated 3T3-L1 adipocytes; type: cell-based, mouse
# Experimental: as §1
# A total of 1 × 10^5 3T3-L1 preadipocytes were seeded in 6-well plates and differentiated for six days. The 3T3-L1 adipocytes were then harvested in 1 ml of REzol C&T (cat. no. PT-KP200CT, Protech), and total RNA was extracted according to the manufacturer’s instructions with slight modifications. Briefly, 200 μl of chloroform were added to 1 ml of sample in REzol, and samples were vigorously mixed by shaking for 30 s, followed by incubation at room temperature for 5 min. Then, samples were centrifuged at 12,000 × g for 15 min at 4 °C, and 400 μl of the upper aqueous phase were transferred to a new 1.5-ml tube. An equal volume of isopropanol was added. Samples were inverted several times for mixing and then centrifuged at 12,000 × g for 10 min at 4 °C. The RNA precipitate, which formed a pellet at the bottom of the 1.5-ml tube, was washed three times with 75% ethanol and air-dried for 15 min. Pellets were dissolved in RNase-free water. The concentration of RNA was measured using Nanodrop. cDNA was synthesized using a reverse transcription kit (cat. no. K1622, Thermo Scientific) using the oligo(dT)18 primers. RT-qPCR was performed in a 10-μl reaction with 50 ng cDNA and 0.2 μM primer using SYBR green reagent (cat. no. 11203ES08, YEASEN). Mouse peptidylprolyl isomerase A (Ppia) mRNA was used as the internal control. RT-qPCR reactions were performed using ABI 7900HT FAST (Applied Biosystems) and Sequence Detection Systems (SDS v2.3, Applied Biosystems). All qPCR reactions were run in duplicates. The primers used are listed in Appendix Table S3.
# [5] = tested on: PPARγ-null 3T3-L1 clones rescued with wild-type mPPARγ; test: Insulin-stimulated glucose uptake in PPARγ-null 3T3-L1 clones rescued with wild-type mPPARγ; type: cell-based, mouse; conditions: Pio 1; clone #1296 rescued with wild-type mPPARγ
# Experimental: as §2, §3, §4
smiles,measurement,setting,value
CCCCCC(=O)/C=C/[C@H]1[C@H](O)CC(=O)[C@@H]1C/C=C\CCCC(=O)O [15ketoPGE2],"Figure 5E raw value, insulin-stimulated glucose uptake (replicates)","[1]; 10 uM, DMSO control 2969.5-4461.5",5153.5 and 5837.5 and 5784.5 and 5754.5
O=C(c1ccc(S(=O)(=O)n2cncn2)cc1)N1CCC(c2ccccc2)CC1 [HHS-0701],PTGR2 enzymatic activity,PTGR2 [2],inhibit PTGR2 enzymatic activity
same,intracellular 15-keto-PGE2 concentration,PTGR2 [3],increase intracellular 15-keto-PGE2 concentration dose-dependently
"CCc1ccc(CCOc2ccc(CC3SC(=O)NC3=O)cc2)nc1 (stereo not shown) [Pio, pioglitazone]","insulin-stimulated glucose uptake, Fig 1J replicates",[1]; Pio 1,4.303 and 3.949 and 2.761 and 3.925
same,"insulin-stimulated glucose uptake, Fig 1P right panel replicates",[4],4.613 and 5.328 and 5.351 and 7.42
same,"Adipoq RT-qPCR, Fig 1I replicates",mPPARγ-downstream genes; Pio 1μM,1.437 and 1.615 and 1.7913
same,"Cepba RT-qPCR, Fig 1H replicates",mPPARγ-downstream genes; Pio 1μM,2.586 and 1.702 and 2.911
same,"Acs RT-qPCR, Fig 1G replicates",mPPARγ-downstream genes; Pio 1,6.866 and 5.338 and 5.547
same,"Cd36 RT-qPCR, Fig 1F replicates",mPPARγ-downstream genes; Pio 1,2.685 and 1.765 and 2.147
same,"Glut4 RT-qPCR, Fig 1C replicates",mPPARγ-downstream genes; Pio 1,6.074 and 7.473 and 6.277
same,"Irs2 RT-qPCR, Fig 1D replicates",mPPARγ-downstream genes; Pio 1,3.5423 and 3.905 and 3.691
same,"Sorbs1 RT-qPCR, Fig 1E replicates",mPPARγ-downstream genes; Pio 1,2.4621 and 3.493 and 3.111
same,"insulin-stimulated glucose uptake, Fig 1P left panel replicates",[5],4.143 and 3.599 and 3.13 and 3.624

# Source: PMC12081876, “Identification of PTGR2 inhibitors as a new therapeutic strategy for diabetes and obesity” (EMBO Molecular Medicine, 2025)
